Molecular target: B-Raf (V600E)-kinase (Homo sapiens, UniProt P15056, V600E)
Test: Kinase test B-Raf (V600E)
Type: biochemical
Settings: 100% = no inhibition, 0% = total inhibition, read-out: % CTL (residual activity of the enzyme relative to DMSO control); for remaining activity at 2 µM: compound concentration 2 μM
In short: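 Kinase preincubated with compound (typically 2 μM to 0.119 nM or 0.017 nM, 5% DMSO) 1 h at RT, then reacted 60 min at RT with 250 μM ATP and biotinylated MEK1. Phospho-MEK (Ser217/221) captured on streptavidin, detected by europium time-resolved fluorescence; IC50 from dose-response curves.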

Chain of B-Raf (V600E)-kinase (P15056 whole entry V600E): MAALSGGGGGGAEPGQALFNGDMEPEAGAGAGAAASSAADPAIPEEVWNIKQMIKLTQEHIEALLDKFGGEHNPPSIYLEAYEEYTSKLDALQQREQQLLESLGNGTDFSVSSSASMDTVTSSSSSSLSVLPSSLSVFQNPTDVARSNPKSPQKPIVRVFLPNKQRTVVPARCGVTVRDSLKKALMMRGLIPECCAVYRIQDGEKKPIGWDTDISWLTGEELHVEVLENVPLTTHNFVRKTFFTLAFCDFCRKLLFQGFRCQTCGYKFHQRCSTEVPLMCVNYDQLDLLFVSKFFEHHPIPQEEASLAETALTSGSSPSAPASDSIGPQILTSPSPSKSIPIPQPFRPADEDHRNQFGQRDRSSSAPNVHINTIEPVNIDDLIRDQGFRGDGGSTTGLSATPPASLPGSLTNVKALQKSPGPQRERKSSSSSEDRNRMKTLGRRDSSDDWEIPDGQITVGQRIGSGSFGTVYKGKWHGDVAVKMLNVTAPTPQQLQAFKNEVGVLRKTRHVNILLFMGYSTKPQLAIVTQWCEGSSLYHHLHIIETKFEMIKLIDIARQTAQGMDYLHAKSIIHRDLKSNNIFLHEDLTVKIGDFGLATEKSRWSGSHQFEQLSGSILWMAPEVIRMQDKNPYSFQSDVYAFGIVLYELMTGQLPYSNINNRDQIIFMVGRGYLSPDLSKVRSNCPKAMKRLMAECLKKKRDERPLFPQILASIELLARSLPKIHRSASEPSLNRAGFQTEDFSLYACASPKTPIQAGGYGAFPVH

A remaining activity at 1.02 µM (measurement at 1.02 μM (**)) of 15.6% was found for `Cc1ncc(C(=O)Nc2cc(C(F)(F)F)cc(N3CCCCC3)c2C)cc1-n1cc(-c2cnn(C)c2C)nn1` [Example I-114] in this work.

A remaining activity at 2 µM of 2.4% was found for `Cc1ncc(NC(=O)c2cc(OC(F)(F)F)cc(N3CCN(C)CC3)c2)cc1-n1cc(-c2cncc(C#N)c2)nn1` [XII-27] in this work.

A remaining activity at 2 µM of 1.8% was found for `COCCCN1CCN(c2cncc(-c3cn(-c4cc(NC(=O)c5ccc(OC)c(C(F)(F)F)c5)cnc4C)nn3)c2)CC1` [XII-46] in this work.

A remaining activity at 2 µM of 5.5% was found for `Cc1ncc(C(=O)Nc2cc(N(C)CCN(C)C)c(C)c(C(F)(F)F)c2)cc1-n1cc(-c2cnn(C)c2C)nn1` [Example I-71] in this work.

A remaining activity at 2 µM of 1.6% was found for `Cc1ncc(NC(=O)c2cc(OC(F)(F)F)cc(N(C)CCN(C)C)c2)cc1-n1cc(-c2cnn(C)c2C)nn1` [XII-20] in this work.

A remaining activity at 2 µM of 1.7% was found for `Cc1ncc(C(=O)Nc2cc(C(C)(C)C)on2)cc1-n1cc(-c2cncc(CN3CCCC3)c2)nn1` [Example I-185] in this work.

A remaining activity at 2 µM of 1.8% was found for `Cc1ncc(C(=O)Nc2cc(CNC3CC3)cc(C(F)(F)F)c2)cc1-n1cc(-c2cnn(C)c2C)nn1` [Example I-111] in this work.

A remaining activity at 2 µM of 3.1% was found for `CCCN1CCN(c2cncc(-c3cn(-c4cc(NC(=O)c5cc(C(F)(F)F)ccn5)cnc4C)nn3)c2)CC1` [XII-41] in this work.

A remaining activity at 2 µM of 1.5% was found for `Cc1ncc(C(=O)Nc2cc(C(C)(C)C)on2)cc1-n1cc(-c2cncc(CN3CCN(C)CC3)c2)nn1` [Example I-186] in this work.

A remaining activity at 2 µM of 8% was found for `CCCCN1CCN(c2cncc(-c3cn(-c4cc(C(=O)Nc5cc(C(C)(C)C)on5)cnc4C)nn3)c2)CC1` [Example I-172] in this work.

A remaining activity at 2 µM of 6.7% was found for `Cc1ncc(C(=O)Nc2cc(C(C)(C)C)on2)cc1-n1cc(-c2cncc(N3CCN(CC(=O)N(C)C)CC3)c2)nn1` [Example I-176] in this work.

A remaining activity at 2 µM of 4% was found for `Cc1ncc(C(=O)Nc2cc(OC(F)(F)F)cc(N3CCN(C)CC3)c2)cc1-n1cc(-c2cncs2)nn1` [Example I-51] in this work.

A remaining activity at 2 µM of 1.9% was found for `CCN1CCN(c2cc(NC(=O)c3cnc(C)c(-n4cc(-c5cncnc5)nn4)c3)cc(C(F)(F)F)c2C)CC1` [Example I-20] in this work.

A remaining activity at 2 µM of 2.1% was found for `Cc1ncc(C(=O)Nc2cc(C(C)(C)C)on2)cc1-n1cc(-c2cncc(N3CCN(CC(F)(F)F)CC3)c2)nn1` [Example I-182] in this work.

A remaining activity at 2 µM of 1.6% was found for `Cc1ncc(C(=O)Nc2cc(C(C)(C)C)on2)cc1-n1cc(-c2cncc(N3CCCN(C)CC3)c2)nn1` [Example I-202] in this work.

A remaining activity at 2 µM of 1.7% was found for `CCN1CCN(c2cc(C(F)(F)F)cc(NC(=O)c3cnc(C)c(-n4cc(-c5cnn(C)c5C)nn4)c3)c2C)CC1` [Example I-120] in this work.

A remaining activity at 2 µM of 1.5% was found for `Cc1ncc(C(=O)Nc2cc(C(C)(C)C)on2)cc1-n1cc(-c2cncc(N3CCN(C)CC3)c2)nn1` [Example I-39] in this work.

A remaining activity at 2 µM of 2% was found for `COCCN(C)Cc1cc(C(F)(F)F)cc(NC(=O)c2cnc(C)c(-n3cc(-c4cnn(C)c4C)nn3)c2)c1OC` [Example I-112] in this work.

A remaining activity at 2 µM of 2.6% was found for `Cc1ncc(C(=O)Nc2cc(C(C)(C)C)ncn2)cc1-n1cc(-c2cncc(N3CCN(C(C)C)CC3)c2)nn1` [Example I-155] in this work.

A remaining activity at 2 µM of 7.7% was found for `Cc1ncc(C(=O)Nc2cc(C(C)(C)C)on2)cc1-n1cc(-c2cncc(N3CCN(CC(C)C)CC3)c2)nn1` [Example I-171] in this work.

A remaining activity at 2 µM of 6.6% was found for `Cc1ccc(C(F)(F)F)cc1C(=O)Nc1cnc(C)c(-n2cc(-c3cnn(C)c3C)nn2)c1` [XII-9] in this work.

A remaining activity at 2 µM of 10.8% was found for `CCOCCN1CCN(c2cncc(-c3cn(-c4cc(NC(=O)c5cccc(OC(F)(F)F)c5)cnc4C)nn3)c2)CC1` [XII-54] in this work.

A remaining activity at 2 µM of 2.3% was found for `Cc1ncc(NC(=O)c2cccc(C(C)(C)C#N)c2)cc1-n1cc(-c2cncc(N3CCN(CC4CC4)CC3)c2)nn1` [XII-49] in this work.

A remaining activity at 2 µM of 4.1% was found for `Cc1ncc(C(=O)Nc2cc(C(C)(C)C)on2)cc1-n1cc(-c2cncc(CN(C)C)c2)nn1` [Example I-187] in this work.

A remaining activity at 2 µM of 2.9% was found for `Cc1ncc(C(=O)Nc2cc(C(C)(C)C)no2)cc1-n1cc(-c2cncc(N3CCN(C)CC3)c2)nn1` [Example I-180] in this work.

A remaining activity at 2 µM of 4.1% was found for `Cc1ncc(C(=O)Nc2cnn(C(C)C)c2)cc1-n1cc(-c2cncc(N3CCN(C(C)C)CC3)c2)nn1` [Example I-150] in this work.

A remaining activity at 2 µM of 2.9% was found for `Cc1ncc(C(=O)Nc2cc(N3CCN(C)CC3)c(C)c(C(F)(F)F)c2)cc1-n1cc(-c2cncnc2)nn1` [Example I-67] in this work.

A remaining activity at 2 µM of 1.4% was found for `Cc1ncc(C(=O)Nc2cc(CN3CCCC3)c(Cl)c(C(F)(F)F)c2)cc1-n1cc(-c2cnn(C)c2C)nn1` [Example I-53] in this work.

A remaining activity at 2 µM of 1.1% was found for `Cc1ncc(C(=O)Nc2cc(N3CCN(C)CC3)c(F)c(C(F)(F)F)c2)cc1-n1cc(-c2cnn(C)c2C)nn1` [Example I-10] in this work.

A remaining activity at 2 µM of 3.6% was found for `Cc1ncc(C(=O)Nc2cc(C(C)(C)C)on2)cc1-n1cc(-c2cncc(CN3CC[C@H](F)C3)c2)nn1` [Example I-193] in this work.

A remaining activity at 2 µM of 1.2% was found for `Cc1ncc(C(=O)Nc2cc(CNC(C)C)c(Cl)c(C(F)(F)F)c2)cc1-n1cc(-c2cnn(C)c2C)nn1` [Example I-54] in this work.
